Data: paper PMC5587682 (Scientific Reports, 2017)
Read-outs that look alike come from different tables or passages of the source. Positions of bridges follow the written chain, without caps; N, C: chain ends. Residues, ends and D or L forms follow the SMILES beside them.

Key:
[1] = system: A/Roma-ISS/02/08 H1N1
[2] = system: A/Parma/05/06 H3N2
[3] = system: A/Parma/24/09 H1N1
[4] = system: A/Parma/05/06 H3N2; assay type: cell-based, Influenza A virus; conditions: turkey erythrocytes
[5] = system: A/Roma-ISS/02/08 H1N1 oseltamivir-sensitive virus; assay type: cell-based, Influenza A virus; conditions: turkey erythrocytes
[6] = system: Influenza A virus strains (all tested viruses); conditions: earlier work; ref [23]; cited from earlier work
[7] = system: Influenza A virus strains (all tested viruses); conditions: earlier work; ref [23]; cited from earlier work; remark: listed apart in the source
[8] = A/Roma-ISS/02/08 H1N1, MDCK cells, CC50 >25 μM
[9] = A/Parma/05/06 H3N2, MDCK cells, CC50 >25 μM
[10] = A/Parma/24/09 H1N1, MDCK cells, CC50 >25 μM
[11] = A/Roma-ISS/02/08 H1N1, MDCK cells, mean of 3 experiments with standard errors
[12] = A/Parma/24/09 H1N1, MDCK cells, mean of 3 experiments with standard errors
[13] = A/Parma/05/06 H3N2, MDCK cells, mean of 3 experiments with standard errors
[14] = A/Roma-ISS/2/08 H1N1, neutralization

Molecule: CC(C)C[C@H](NC(=O)[C@H](CO)NC(=O)[C@H](CO)NC(=O)[C@H](Cc1c[nH]cn1)NC(=O)[C@H](CCCCN)NC(=O)[C@@H](N)CO)C(=O)N[C@@H](CC(=O)O)C(=O)N[C@@H](CS)C(=O)N[C@H](C(=O)N[C@@H](CC(C)C)C(=O)N[C@@H](CCCNC(=N)N)C(=O)N1CCC[C@H]1C(=O)O)C(C)C [Peptide 1, SKHSSLDCVLRP] (H-SKHSSLDCVLRP-OH)
- SI (CC50/EC50) [1, 8]: >6.25.10^6
- SI (CC50/EC50) [2, 9]: >4.4.10^6
- SI (CC50/EC50) [3, 10]: >8.10^6

Molecule: CC(C)C[C@H](NC(=O)CNC(=O)[C@H](CCC(=O)O)NC(=O)[C@H](CC(N)=O)NC(=O)[C@H](C)NC(=O)[C@@H](N)CCCCN)C(=O)N[C@H](C(=O)N[C@@H](Cc1c[nH]c2ccccc12)C(=O)N[C@@H](CC(N)=O)C(=O)N[C@@H](CO)C(=O)N[C@@H](CC(C)C)C(=O)N[C@@H](CCCCN)C(=O)N[C@@H](CC(=O)O)C(=O)N[C@@H](CCCCN)C(=O)O)[C@@H](C)O [Peptide 4, KANEGLTWNSLKDK] (H-KANEGLTWNSLKDK-OH)
- SI (CC50/EC50) [1, 8]: >2.5.10^7
- EC50 [1, 11]: 1 ± 0.15 pM
- SI (CC50/EC50) [2, 9]: >2.5.10^4
- SI (CC50/EC50) [3, 10]: >5.10^2

Molecule: C[C@H](NC(=O)CNC(=O)[C@@H]1CCCN1C(=O)[C@H](C)NC(=O)[C@@H]1CSSC[C@H](NC(=O)[C@H](CO)NC(=O)CNC(=O)[C@@H](N)[C@@H](C)O)C(=O)N[C@@H](C)C(=O)N[C@@H](Cc2ccccc2)C(=O)N[C@@H](CC(=O)O)C(=O)N[C@@H](CCC(=O)O)C(=O)N[C@@H](Cc2ccccc2)C(=O)N[C@@H](Cc2ccccc2)C(=O)N[C@@H](CO)C(=O)N[C@@H](CCC(N)=O)C(=O)N[C@@H](CO)C(=O)N1)C(=O)N[C@@H](CC(=O)O)C(=O)N1CCC[C@H]1C(=O)N[C@@H](CCCCN)C(=O)N[C@@H](CO)C(=O)N[C@@H](CCCNC(=N)N)C(=O)O [Peptide 5] (H-TGSCAFDEFFSQSCAPGADPKSR-OH; disulfide 4-14; N-terminus assumed)
- HI titer [4]: 97 nM

Molecule: C[C@H](NC(=O)[C@H](Cc1c[nH]c2ccccc12)NC(=O)[C@H](CC(=O)O)NC(=O)[C@H](C)NC(=O)[C@@H](NC(=O)[C@H](CO)NC(=O)[C@H](CCC(=O)O)NC(=O)CNC(=O)[C@H](CC(N)=O)NC(=O)[C@@H](N)[C@@H](C)O)[C@@H](C)O)C(=O)N[C@@H](CCCCN)C(=O)N[C@@H](CC(N)=O)C(N)=O [Peptide 6, TNGESTADWAKN] (H-TNGESTADWAKN-NH2; N-terminus and C-terminus assumed)
- HI titer [4]: 0.3 nM
- SI (CC50/EC50) [1, 8]: >6.25.10^4
- EC50 [1, 11]: 400 ± 0.02 pM
- HI titer [5]: 0.7 nM
- SI (CC50/EC50) [2, 9]: >2.5.10^3
- SI (CC50/EC50) [3, 10]: >5.10^2

Molecule: C[C@@H](O)[C@H](NC(=O)[C@H](CCC(=O)O)NC(=O)[C@H](CO)NC(=O)[C@@H](N)CCCCN)C(=O)N[C@@H](CCCCN)C(=O)N[C@@H](CC(N)=O)C(=O)O [Peptide 8, KSETKN] (H-KSETKN-OH; N-terminus and C-terminus assumed)
- HI titer [4]: 3 nM
- SI (CC50/EC50) [1, 8]: >5.10^7
- HI titer [5]: 1.5 nM
- SI (CC50/EC50) [2, 9]: >0.65.10^2
- SI (CC50/EC50) [3, 10]: >5.10^4
- EC50 [3, 12]: 500 ± 0.46 pM

Molecule: CC(C)C[C@H](NC(=O)[C@@H](NC(=O)[C@H](CS)NC(=O)[C@H](CC(=O)O)NC(=O)[C@H](CC(C)C)NC(=O)[C@@H](N)CO)C(C)C)C(=O)N[C@@H](CCCNC(=N)N)C(=O)N1CCC[C@H]1C(N)=O [Peptide 13, SLDCVLRP] (H-SLDCVLRP-NH2)
- HI titer [4]: 0.0004 nM
- SI (CC50/EC50) [1, 8]: >8.33.10^7
- HI titer [5]: 0.0007 nM
- SI (CC50/EC50) [2, 9]: >8.33.10^4
- EC50 [2, 13]: 300 ± 0.2 pM
- loss of activity with respect to 1 ([2]; H3N2 strain, neutralization): ≈ 50 fold
- SI (CC50/EC50) [3, 10]: >1.10^7
- EC50 [3, 12]: 2.5 ± 0.37 pM

Molecule: CC(=O)N[C@H](C(=O)N[C@@H](CC(C)C)C(=O)N[C@@H](CCCNC(=N)N)C(=O)N1CCC[C@H]1C(N)=O)C(C)C [Peptide 14, VLRP] (Ac-VLRP-NH2)
- SI (CC50/EC50) [1]: >5.55.10^7
- SI (CC50/EC50) [2]: >1.10^5
- EC50 ([2]; A/Parma/05/06, 1 h): 250 ± 0.42 pM
- SI (CC50/EC50) [3]: >2.5.10^7
- EC50 ([3]; A/Parma/24/09, 1 h): 1 ± 0.05 pM

Molecule: CC(=O)N[C@@H](CO)C(=O)N[C@@H](CC(C)C)C(=O)N[C@@H](CC(=O)O)C(=O)N[C@@H](CS)C(N)=O [Peptide 15, SLDC] (Ac-SLDC-NH2)
- SI (CC50/EC50) [1, 8]: >5.10^7
- SI (CC50/EC50) [3, 10]: >5.4.10^6
- EC50 [3, 12]: 4.6 ± 0.05 pM

Molecule: CC(C)C[C@H](NC(=O)[C@H](CO)NC(=O)[C@H](CO)NC(=O)[C@H](Cc1c[nH]cn1)NC(=O)[C@H](CCCCN)NC(=O)[C@@H](N)CO)C(=O)N[C@@H](CC(=O)O)C(=O)N[C@@H](CS)C(=O)O [Peptide 16, SKHSSLDC] (H-SKHSSLDC-OH; N-terminus and C-terminus assumed)
- HI titer [4]: 12 nM
- fold less active than 1 [1, 14]: 20 fold
- fold less active than 13 [1, 14]: 270 fold
- SI (CC50/EC50) [1, 8]: >3.125.10^5
- EC50 [1, 11]: 80 ± 0.19 pM
- HI titer [5]: 0.3 nM
- SI (CC50/EC50) [2, 9]: >5.10^6
- EC50 [2, 13]: 5 ± 0.45 pM
- fold more potent than 1 ([3]; A/Parma/24/09 H1N1, neutralization): 30 fold
- SI (CC50/EC50) [3, 10]: >2.5.10^8

Molecule: CC(=O)N[C@@H](CO)C(=O)N[C@@H](CCCCN)C(=O)N[C@@H](Cc1c[nH]cn1)C(=O)N[C@@H](CO)C(N)=O [Peptide 17, SKHS] (Ac-SKHS-NH2)
- SI (CC50/EC50) [1]: >8.33.10^6
- EC50 ([1]; A/Roma-ISS/02/08, 1 h): 3 ± 0.61 pM
- SI (CC50/EC50) [2]: >5.10^6
- EC50 ([2]; A/Parma/05/06, 1 h): 5 ± 0.02 pM
- SI (CC50/EC50) [3]: >5.2.10^8

Molecule: AGDDQGLDKCVPNSKEK [Peptide 2, bLf C-lobe fragment 506–522]
- concentration inhibiting viral hemagglutination [6]: low picomolar
- concentration inhibiting viral infection [7]: low picomolar

Molecule: NGESSADWAKN [Peptide 3]
- concentration inhibiting viral hemagglutination [6]: low picomolar
- concentration inhibiting viral infection [7]: low picomolar

Molecule: NRKSSKHSSLDCVLRP [Peptide 11, bLf C-lobe fragment 414–429]
- HI titer [4]: 0.4 nM

Molecule: NRKSSKHSSLDCVLRPTEGY [Peptide 10, bLf C-lobe fragment 414–433]
- HI titer [4]: 0.0014 nM
- HI titer [5]: 0.3 nM

Molecule: SKHSSLDCVLRPTEGY [Peptide 12, bLf C-lobe fragment 418–433]
- HI titer [4]: 0.03 nM
- HI titer [5]: 0.7 nM
